Results reported in patent US8722123B2, “Antimicrobial composition and use as food treatment” (priority 2008, dated 2014).
Several values for one entry are separate records, joined by “and”; a condition that tells them apart may be missing. Equal values may be shown once. Read-outs that look alike come from different tables or passages of the source.

How the values were obtained:
S. enteritidis = format: cell-based, Salmonella enteritidis
L. monocytogenes = format: cell-based, Listeria monocytogenes
[1] = tested on: Salmonella on whole chicken with feathers; test: Salmonella counts on whole chicken with feathers; format: cell-based; conditions: whole chickens with feathers soaked in 72 L at 21° C. for 5 min, chickens 1-5
S. typhimurium DT 104 = format: cell-based, Salmonella typhimurium DT104
[2] = tested on: spores of Bacillus anthracis Sterne; format: cell-based, Bacillus anthracis Sterne (34F2)

Structure (SMILES): CC(=O)CCC(=O)O [1.5% levulinic acid (pH 2.8), levulinic acid]
- S. enteritidis counts at 0 min (S. enteritidis): 6.7 log CFU/ml
- S. enteritidis counts at 2 min (S. enteritidis): 6.7 log CFU/ml
- S. enteritidis counts at 5 min (S. enteritidis): 6.8 log CFU/ml
- S. enteritidis counts at 10 min (S. enteritidis): 6.7 log CFU/ml
- S. enteritidis counts at 20 min (S. enteritidis): 6.4 log CFU/ml
- S. enteritidis counts at 30 min (S. enteritidis): 6.5 log CFU/ml
- L. monocytogenes counts at 0 min (L. monocytogenes): 6.9 ± 0.1 log CFU/ml
- L. monocytogenes counts at 2 min (L. monocytogenes): 6.9 ± 0.2 log CFU/ml
- L. monocytogenes counts at 5 min (L. monocytogenes): 6.9 ± 0.3 log CFU/ml
- L. monocytogenes counts at 10 min (L. monocytogenes): 6.9 ± 0.1 log CFU/ml
- L. monocytogenes counts at 20 min (L. monocytogenes): 6.9 ± 0.3 log CFU/ml
- L. monocytogenes counts at 30 min (L. monocytogenes): 6.8 ± 0.3 log CFU/ml

Structure (SMILES): CC(=O)CCC(=O)O [0.1% levulinic acid (pH 2.5), levulinic acid]
- S. enteritidis counts at 0 min (S. enteritidis): 7.1 log CFU/ml
- S. enteritidis counts at 2 min (S. enteritidis): 7.1 log CFU/ml
- S. enteritidis counts at 5 min (S. enteritidis): 6.9 log CFU/ml
- S. enteritidis counts at 10 min (S. enteritidis): 7.0 log CFU/ml
- S. enteritidis counts at 20 min (S. enteritidis): 6.9 log CFU/ml
- S. enteritidis counts at 30 min (S. enteritidis): 6.9 log CFU/ml

Structure (SMILES): CC(=O)CCC(=O)O [2.5% levulinic acid (pH 2.6), levulinic acid]
- S. enteritidis counts at 0 min (S. enteritidis): 6.9 log CFU/ml
- S. enteritidis counts at 2 min (S. enteritidis): 6.8 log CFU/ml
- S. enteritidis counts at 5 min (S. enteritidis): 6.9 log CFU/ml
- S. enteritidis counts at 10 min (S. enteritidis): 6.4 log CFU/ml
- S. enteritidis counts at 20 min (S. enteritidis): 5.8 log CFU/ml
- S. enteritidis counts at 30 min (S. enteritidis): 4.8 log CFU/ml

Structure (SMILES): [Ca+2].[O-]Cl.[O-]Cl [50 ppm calcium hypochlorite]
- Salmonella counts after treatment ([1]; left breast): 7.0 log CFU/9 cm^2 and 8.7 log CFU/9 cm^2 and 7.9 log CFU/9 cm^2 and 8.1 log CFU/9 cm^2
- Salmonella counts after treatment ([1]; left wing): 7.6 log CFU/9 cm^2 and 8.0 log CFU/9 cm^2 and 8.1 log CFU/9 cm^2 and 8.8 log CFU/9 cm^2 and 8.5 log CFU/9 cm^2
- Salmonella counts after treatment ([1]; neck): 7.9 log CFU/9 cm^2 and 8.9 log CFU/9 cm^2 and 8.5 log CFU/9 cm^2 and 8.1 log CFU/9 cm^2
- Salmonella counts after treatment ([1]; right breast): 7.9 log CFU/9 cm^2 and 8.3 log CFU/9 cm^2 and 8.0 log CFU/9 cm^2 and 8.5 log CFU/9 cm^2 and 7.8 log CFU/9 cm^2
- Salmonella counts after treatment ([1]; right wing): 8.4 log CFU/9 cm^2 and 8.0 log CFU/9 cm^2 and 7.6 log CFU/9 cm^2

Structure (SMILES): CCCCCCCCCCCCOS(=O)(=O)[O-].[Na+] [0.05% sodium dodecyl sulfate (pH 4.4), sodium dodecyl sulfate]
- S. enteritidis counts at 0 min (S. enteritidis): 7.1 log CFU/ml
- S. enteritidis counts at 2 min (S. enteritidis): 7.0 log CFU/ml
- S. enteritidis counts at 5 min (S. enteritidis): 7.2 log CFU/ml
- S. enteritidis counts at 10 min (S. enteritidis): 7.1 log CFU/ml
- S. enteritidis counts at 20 min (S. enteritidis): 7.2 log CFU/ml
- S. enteritidis counts at 30 min (S. enteritidis): 7.1 log CFU/ml
- Salmonella reduction (S. enteritidis): did not reduce Salmonella cell numbers
- S. typhimurium DT 104 counts at 0 min (S. typhimurium DT 104): 7.0 log CFU/ml
- S. typhimurium DT 104 counts at 1 min (S. typhimurium DT 104): 7.0 log CFU/ml
- S. typhimurium DT 104 counts at 2 min (S. typhimurium DT 104): 6.8 log CFU/ml
- S. typhimurium DT 104 counts at 5 min (S. typhimurium DT 104): 6.9 log CFU/ml
- S. typhimurium DT 104 counts at 10 min (S. typhimurium DT 104): 6.8 log CFU/ml
- S. typhimurium DT 104 counts at 20 min (S. typhimurium DT 104): 6.9 log CFU/ml
- S. typhimurium DT 104 counts at 30 min (S. typhimurium DT 104): 6.9 log CFU/ml
- S. typhimurium DT 104 counts at 60 min (S. typhimurium DT 104): 6.9 log CFU/ml
- L. monocytogenes counts at 0 min (L. monocytogenes; 21° C.): 6.6 ± 0.3 log CFU/ml
- L. monocytogenes counts at 2 min (L. monocytogenes; 21° C.): 6.4 ± 0.1 log CFU/ml
- L. monocytogenes counts at 5 min (L. monocytogenes; 21° C.): 6.0 ± 0.1 log CFU/ml
- L. monocytogenes counts at 10 min (L. monocytogenes; 21° C.): 5.0 ± 0.3 log CFU/ml
- L. monocytogenes counts at 20 min (L. monocytogenes; 21° C.): 3.8 ± 0.2 log CFU/ml
- L. monocytogenes counts at 30 min (L. monocytogenes; 21° C.): 3.3 ± 0.1 log CFU/ml

Structure (SMILES): CC(=O)O [0.5% acetic acid (pH 3.1), acetic acid]
- S. enteritidis counts at 0 min (S. enteritidis): 7.1 log CFU/ml
- S. enteritidis counts at 2 min (S. enteritidis): 7.0 log CFU/ml
- S. enteritidis counts at 5 min (S. enteritidis): 6.8 log CFU/ml
- S. enteritidis counts at 10 min (S. enteritidis): 6.7 log CFU/ml
- S. enteritidis counts at 20 min (S. enteritidis): 6.6 log CFU/ml
- S. enteritidis counts at 30 min (S. enteritidis): 6.5 log CFU/ml

Structure (SMILES): CCCCCCCCCCCCOS(=O)(=O)[O-].[Na+] [E]
- CFU % recovery (as compared to control flask F), 10 min [2]: 65%
- CFU % recovery (as compared to control flask F), 45 min [2]: 94%
- CFU % recovery (as compared to control flask F), 90 min [2]: 144%
- CFU % recovery (as compared to control flask F), 2 h [2]: 87% and 74% and 103% and 53%
- CFU % recovery (as compared to control flask F), 180 min [2]: 95%
- CFU % recovery (as compared to control flask F), 3 h [2]: 98% and 68% and 113% and 71%
- effectiveness versus water control F [2]: not more effective than the water control F
- recovery levels over time [2]: did not decrease

Structure (SMILES): CC(=O)CCC(=O)O [3.0% levulinic acid (pH 2.7), levulinic acid]
- S. enteritidis counts at 0 min (S. enteritidis): 6.6 log CFU/ml
- S. enteritidis counts at 2 min (S. enteritidis): 6.8 log CFU/ml
- S. enteritidis counts at 5 min (S. enteritidis): 6.5 log CFU/ml
- S. enteritidis counts at 10 min (S. enteritidis): 6.2 log CFU/ml
- S. enteritidis counts at 20 min (S. enteritidis): 5.1 log CFU/ml
- S. enteritidis counts at 30 min (S. enteritidis): 3.8 log CFU/ml
- CFU % recovery (as compared to control flask F), 0 min [2]: 89% and 70% and 75%
- CFU % recovery (as compared to control flask F), 10 min [2]: 81%
- CFU % recovery (as compared to control flask F), 45 min [2]: 55%
- CFU % recovery (as compared to control flask F), 1 h [2]: 54% and 78% and 80% and 58%
- CFU % recovery (as compared to control flask F), 90 min [2]: 64%
- CFU % recovery (as compared to control flask F), 2 h [2]: 27% and 45% and 46% and 34%

Structure (SMILES): CC(=O)CCC(=O)O [2.0% levulinic acid (pH 2.8), levulinic acid]
- S. enteritidis counts at 0 min (S. enteritidis): 6.7 log CFU/ml
- S. enteritidis counts at 2 min (S. enteritidis): 6.7 log CFU/ml
- S. enteritidis counts at 5 min (S. enteritidis): 6.7 log CFU/ml
- S. enteritidis counts at 10 min (S. enteritidis): 6.8 log CFU/ml
- S. enteritidis counts at 20 min (S. enteritidis): 6.5 log CFU/ml
- S. enteritidis counts at 30 min (S. enteritidis): 6.0 log CFU/ml
- L. monocytogenes counts at 0 min (L. monocytogenes): 6.8 ± 0.3 log CFU/ml
- L. monocytogenes counts at 2 min (L. monocytogenes): 6.8 ± 0.2 log CFU/ml
- L. monocytogenes counts at 5 min (L. monocytogenes): 6.9 ± 0.2 log CFU/ml
- L. monocytogenes counts at 10 min (L. monocytogenes): 6.7 ± 0.2 log CFU/ml
- L. monocytogenes counts at 20 min (L. monocytogenes): 6.9 ± 0.2 log CFU/ml
- L. monocytogenes counts at 30 min (L. monocytogenes): 6.8 ± 0.2 log CFU/ml

Structure (SMILES): CC(=O)CCC(=O)O [1.0% levulinic acid (pH 2.9), levulinic acid]
- S. enteritidis counts at 0 min (S. enteritidis): 6.9 log CFU/ml
- S. enteritidis counts at 2 min (S. enteritidis): 6.7 log CFU/ml
- S. enteritidis counts at 5 min (S. enteritidis): 6.8 log CFU/ml
- S. enteritidis counts at 10 min (S. enteritidis): 6.9 log CFU/ml
- S. enteritidis counts at 20 min (S. enteritidis): 6.9 log CFU/ml
- S. enteritidis counts at 30 min (S. enteritidis): 6.7 log CFU/ml
- L. monocytogenes counts at 0 min (L. monocytogenes): 6.8 ± 0.3 log CFU/ml
- L. monocytogenes counts at 2 min (L. monocytogenes): 6.7 ± 0.2 log CFU/ml
- L. monocytogenes counts at 5 min (L. monocytogenes): 6.6 ± 0.3 log CFU/ml
- L. monocytogenes counts at 10 min (L. monocytogenes): 6.6 ± 0.3 log CFU/ml
- L. monocytogenes counts at 20 min (L. monocytogenes): 6.6 ± 0.0 log CFU/ml
- L. monocytogenes counts at 30 min (L. monocytogenes): 6.6 ± 0.3 log CFU/ml

Structure (SMILES): CC(=O)CCC(=O)O [0.5% levulinic acid (pH 2.6), levulinic acid]
- S. enteritidis counts at 0 min (S. enteritidis): 7.1 log CFU/ml
- S. enteritidis counts at 2 min (S. enteritidis): 6.8 log CFU/ml
- S. enteritidis counts at 5 min (S. enteritidis): 6.9 log CFU/ml
- S. enteritidis counts at 10 min (S. enteritidis): 6.9 log CFU/ml
- S. enteritidis counts at 20 min (S. enteritidis): 6.6 log CFU/ml
- S. enteritidis counts at 30 min (S. enteritidis): 6.7 log CFU/ml
- S. typhimurium DT 104 counts at 0 min (S. typhimurium DT 104): 6.8 log CFU/ml
- S. typhimurium DT 104 counts at 1 min (S. typhimurium DT 104): 6.7 log CFU/ml
- S. typhimurium DT 104 counts at 2 min (S. typhimurium DT 104): 6.6 log CFU/ml
- S. typhimurium DT 104 counts at 5 min (S. typhimurium DT 104): 6.5 log CFU/ml
- S. typhimurium DT 104 counts at 10 min (S. typhimurium DT 104): 6.7 log CFU/ml
- S. typhimurium DT 104 counts at 20 min (S. typhimurium DT 104): 6.6 log CFU/ml
- S. typhimurium DT 104 counts at 30 min (S. typhimurium DT 104): 6.4 log CFU/ml
- S. typhimurium DT 104 counts at 60 min (S. typhimurium DT 104): 5.9 log CFU/ml
- L. monocytogenes counts at 0 min (L. monocytogenes): 6.7 ± 0.2 log CFU/ml
- L. monocytogenes counts at 2 min (L. monocytogenes): 6.7 ± 0.1 log CFU/ml
- L. monocytogenes counts at 5 min (L. monocytogenes): 6.8 ± 0.3 log CFU/ml
- L. monocytogenes counts at 10 min (L. monocytogenes): 6.9 ± 0.2 log CFU/ml
- L. monocytogenes counts at 20 min (L. monocytogenes): 6.7 ± 0.2 log CFU/ml
- L. monocytogenes counts at 30 min (L. monocytogenes): 6.8 ± 0.2 log CFU/ml
